Results as given in US6858739B2, “Indole and benzimidazole 15-lipoxygenase inhibitors” (Warner-Lambert Company, priority 2000, dated 2005).
pIC50: −log10 of the molar value. Structures can show the parent of a compound that is named as a salt.

Columns and labels:
human 15-LO = molecular target: T1, human 15-LO (Homo sapiens, UniProt P16050); assay: 15-LO inhibition, human enzyme; type: biochemical; details: linoleic acid as substrate; for inhibition at 10 µM: at 10 micromolar
T1 sequence (P16050 1-662): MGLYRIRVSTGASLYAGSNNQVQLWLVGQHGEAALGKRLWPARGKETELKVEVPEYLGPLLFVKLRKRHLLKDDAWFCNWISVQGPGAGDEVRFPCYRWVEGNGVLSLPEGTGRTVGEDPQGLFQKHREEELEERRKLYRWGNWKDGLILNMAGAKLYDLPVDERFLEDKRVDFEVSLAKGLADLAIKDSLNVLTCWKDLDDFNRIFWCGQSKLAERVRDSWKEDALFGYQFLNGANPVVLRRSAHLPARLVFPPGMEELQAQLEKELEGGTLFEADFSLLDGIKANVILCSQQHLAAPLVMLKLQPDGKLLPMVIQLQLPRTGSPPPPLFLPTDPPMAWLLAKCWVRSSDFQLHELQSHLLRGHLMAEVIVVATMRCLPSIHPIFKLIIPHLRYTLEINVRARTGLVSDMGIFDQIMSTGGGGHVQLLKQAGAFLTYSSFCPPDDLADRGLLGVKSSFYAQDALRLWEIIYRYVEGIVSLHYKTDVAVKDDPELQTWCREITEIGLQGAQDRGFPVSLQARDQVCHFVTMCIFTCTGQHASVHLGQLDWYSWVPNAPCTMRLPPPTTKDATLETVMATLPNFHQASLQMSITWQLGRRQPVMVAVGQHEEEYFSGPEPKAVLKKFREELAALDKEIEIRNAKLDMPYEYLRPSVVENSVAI
Procedure: The compounds described above are effective inhibitors of 15-LO when evaluated in standard assays routinely utilized to measure 15-LO activity. Specifically, representative compounds were evaluated by the methods described by Auerbach et al., Analytical Biochemistry, 1992;201:375-380. Two in vitro assays were utilized, one utilizing rabbit reticulocyte 15-LO, the other using human 15-LO. Both used linoleic acid as substrate, to enzymatically produce a peroxide oxidation product known as 13(S)-HPODE. N-Benzoyl leucomethylene blue was utilized as a colorimetric reagent for detection and quantification of the peroxide formation. Also, HPLC was utilized to quantify the oxidation following incubation at 4° C. for 10 minutes.
Data Column 1 gives the concentration of compound required to inhibit 50% of the activity of 15-LO (IC50) when measured by the HPLC method of Auerbach et al. using rabbit enzymes, and data Column 2 gives data from human 15-LO enzyme.

Compound	melting point	pIC50 (human 15-LO)	inhibition at 10 µM (human 15-LO)
COc1ccc(-c2cc3cc(F)c(F)cc3[nH]2)cc1Nc1cccc(OCc2ccccc2)c1 (as salt: HCl) [Example 53, [5-(5,6-Difluoro-1H-indol-2-yl)-2-methoxy-phenyl]-(3-benzyloxy-phenyl)-amine]	200 to 201 °C (dec.)	–	–
COc1ccc(-c2cc3cc(F)c(F)cc3[nH]2)cc1NS(=O)(=O)c1cccc(N)c1 [Example 16, 3-Amino-N-[5-(5,6-difluoro-1H-indol-2-yl)-2-methoxy-phenyl]-benzenesulfonamide]	235 to 238 °C	7.70	–
COc1ccc(-c2cc3ccccc3[nH]2)cc1NC(=S)Nc1ccc(S(N)(=O)=O)cc1 [Example 17, 4-{3-[5-(1H-Indol-2-yl)-2-methoxy-phenyl]-thioureido}-benzenesulfonamide]	–	6.73	–
CCCCCCCCCCCCS(=O)(=O)Nc1cc(-c2cc3cc(F)c(F)cc3[nH]2)ccc1OC [Example 20, Dodecane-1-sulfonic acid [5-(5,6-difluoro-1H-indol-2-yl)-methoxy-phenyl]-amide]	148 to 149 °C	7.89	–
CCCCCCCCCCCCS(=O)(=O)Nc1cc(-c2nc3cc(Cl)c(Cl)cc3[nH]2)ccc1OC [Example 21, Dodecane-1-sulfonic acid [5-(5,6-dichloro-1H-benzoimidazol-2-yl)-2-methoxy-phenyl]-amide]	203 to 204 °C	–	65%
COc1ccc(-c2cc3cc(F)c(F)cc3[nH]2)cc1Nc1cccc(C(F)(F)F)c1 [Example 22, [5-(5,6-Difluoro-1H-indol-2-yl)-2-methoxy-phenyl]-(3-trifluoro-methylphenyl)-amine]	144 to 146 °C	7.32	–
CCOP(=O)(Cc1ccc(NC(=S)Nc2cc(-c3cc4ccccc4[nH]3)ccc2OC)cc1)OCC [Example 23, (4-{3-[5-(1H-Indol-2-yl)-2-methoxy-phenyl]-thioureido}-benzyl)-phosphonic acid diethyl ester]	–	6.48	–
COc1ccc(-c2cc3cc(F)c(F)cc3[nH]2)cc1NC(=O)Nc1cc(Cl)cc(Cl)c1 [Example 25, 1-(3,5-Dichloro-phenyl)-3-[5-(5,6-difluoro-1H-indol-2-yl)-2-methoxy-phenyl]-urea]	240 to 243 °C	5.68	–
COc1ccc(-c2cc3ccccc3[nH]2)cc1NC(N)=S [Example 26, [5-(1H-Indol-2-yl)-2-methoxy-phenyl]-thiourea]	188 to 191 °C	6.59	–
COc1ccc(-c2cc3ccccc3[nH]2)cc1NC(=S)N[C@H](C)c1ccccc1 [Example 27, (R)-1-[5-(1H-Indol-2-yl)-2-methoxy-phenyl]-3(1-phenyl-ethyl)-thiourea]	179 to 181 °C	5.75	–
COc1ccc(-c2cc3cc(F)c(F)cc3[nH]2)cc1NS(=O)(=O)c1cccc(C#N)c1 [Example 28, 3Cyano-N-[5-(5,6-difluoro-1H-indol-2-yl)-2-methoxy-phenyl]-benzenesulfonamide]	239 to 242 °C	6.10	–
CNc1cc(-c2cc3ccccc3[nH]2)ccc1OC [Example 29, [5-(1H-Indol-2-yl)-2-methoxy-phenyl]-methyl-amine]	–	6.33	–
COc1ccc(-c2cc3cc(F)c(F)cc3[nH]2)cc1NC(=S)Nc1cc(C(=O)O)cc(C(=O)O)c1 [Example 30, 5-{3-[5-(5,6-Difluoro-1H-indol-2-yl)-2-methoxy-phenyl]-thioureido}-isophthalic acid]	–	5.74	–
COc1ccc(-c2cc3ccccc3[nH]2)cc1NC(=S)NCCNC(=O)OC(C)(C)C [Example 31, (2-{3-[5-(1H-Indol-2-yl)-2-methoxy-phenyl]-thioureido}-ethyl)-carbamic acid tert-butyl ester]	159 to 160 °C	6.85	–
COc1ccc(-c2cc3ccccc3[nH]2)cc1NC(=S)Nc1ccc(C(=O)O)cc1 [Example 32, 4-{3-[5-(1H-Indol-2-yl)-2-methoxy-phenyl]-thioureido}-benzoic acid]	201 to 203 °C	6.52	–
COc1ccc(-c2cc3ccccc3[nH]2)cc1NC(=S)Nc1cccc(CC(=O)O)c1 [Example 33, (3-{3-[5-(1H-Indol-2-yl)-2-methoxy-phenyl]-thioureido}-phenyl)-acetic acid]	174 to 175 °C	6.13	–
COc1ccc(-c2cc3ccccc3[nH]2)cc1NC(=S)Nc1ccc(CC(=O)O)cc1 [Example 34, (4-{3-[5-(1H-Indol-2-yl)-2-methoxy-phenyl]-thioureido}-phenyl)-acetic acid]	190 to 192 °C	5.84	–
COc1ccc(-c2cc3cc(F)c(F)cc3[nH]2)cc1NC(=S)N[C@@H](C)c1ccccc1 [Example 35, 1-[5-(5,6-Difluoro-1H-indol-2-yl)-2-methoxy-phenyl]-3-((S)-1-phenyl-ethyl)-thiourea]	102 to 106 °C	6.27	–
COc1ccc(-c2cc3cc(F)c(F)cc3[nH]2)cc1NC(=S)N[C@@H](COC(C)(C)C)C(=O)OC(C)(C)C [Example 36, (S)-3-tert-Butoxy-2-{3-[5-(5,6-Difluoro-1H-indol-2-yl)-2-methoxy-phenyl]-thioureido}-propionic acid tert-butyl ester]	111 to 114 °C	–	51%
COc1ccc(-c2cc3cc(F)c(F)cc3[nH]2)cc1NC(=S)N[C@@H](CO)[C@@H](O)c1ccccc1 [Example 40, 1-[5-(5,6-Difluoro-1H-indol-2-yl)-2-methoxy-phenyl]-3-((1S,2S)-2-hydroxy-1-hydroxymethyl-2-phenyl-ethyl)-thiourea]	–	6.21	–
COc1ccc(-c2cc3ccccc3[nH]2)cc1NCc1cccc([N+](=O)[O-])c1 [Example 42, [5-(1H-indol-2-yl)-2-methoxy-phenyl]-(3-nitro-benzyl)-amine]	160 to 162 °C	6.06	–
COc1ccc(-c2cc3ccccc3[nH]2)cc1NCc1ccc([N+](=O)[O-])cc1 [Example 43, [5-(1H-Indol-2-yl)-2-methoxy-phenyl]-(4-nitro-benzyl)-amine]	198 to 199 °C	6.04	–
COc1ccc(-c2cc3ccccc3[nH]2)cc1NCc1ccc([N+](=O)[O-])c(O)c1 [Example 44, [5-(1H-Indol-2-yl)-2-methoxy-phenyl]-(3-hydroxy-4-nitro-benzyl)-amine]	134 to 135 °C	6.63	–
COc1ccc(-c2cc3ccccc3[nH]2)cc1NCc1ccc(O)c([N+](=O)[O-])c1 [Example 45, [5-(1H-Indol-2-yl)-2-methoxy-phenyl]-(4-hydroxy-3-nitro-benzyl)-amine]	165 to 166 °C	6.38	–
COc1ccc(-c2cc3cc(F)c(F)cc3[nH]2)cc1NCc1cccc([N+](=O)[O-])c1 [Example 46, [5-(5,6-Difluoro-1H-indol-2-yl)-2-methoxy-phenyl]-(3-nitro-benzyl)-amine]	212 to 214 °C	5.52	–
COc1ccc(-c2cc3cc(F)c(F)cc3[nH]2)cc1NCc1ccc([N+](=O)[O-])cc1 [Example 47, [5-(5,6-Difluoro-1H-indol-2-yl)-2-methoxy-phenyl]-(4nitro-benzyl)-amine]	181 to 182 °C	6.27	–
